Reference: patent publication US6559281B1, “Non-naturally occurring synthetic lytic peptides” (priority 1993, dated 2003)
Read-outs that look alike come from different tables or passages of the source.

What was measured:
Pseudomonas aeruginosa = format: cell-based; details: clinical isolate, 37° C. for one hour; for # of Survivors: minus peptide control 100,000; for % of Control: survivors
Description: (§1) In this test, antibiotic resistant clinical isolates of Pseudomonas aeruginosa and Staphylococcus aureus were obtained. The lytic peptide bioassay was performed as described below.
(§2) A flask containing 49 ml of nutrient broth was inoculated with 1 ml of an overnight culture of the test bacteria. The culture was allowed to grow to mid-log phase at 37° C. with shaking (approximately 4 hours). When the cells reached the correct density, the cells were transferred to a sterile tube and centrifuged for 10 minutes at 3000 rpm. The pellet was resuspended in 3 ml of phosphate buffer and centrifuged for 10 minutes at 3000 rpm. The pellet was resuspended once again in sufficient (but measured) volume to calculate the absorbance of the suspension at 600 nm. Using the resulting absorbance and a previously constructed growth curve, the required dilution to achieve a concentration of 10^6 cells/ml was determined.
(§3) The test culture tubes for the bioassay contained 800 μl of phosphate buffer, pH 7.0, 100 μl of cells at 10^6 cells/ml and 100 μl of peptide solution (10 μM to 1 mM). The final concentration of peptide in the assay was from 1 μM to 100 μM. A reaction system minus peptide was included as a control. The tubes were incubated at 37° C. for one hour.
(§4) After the incubation period two 1:10 serial dilutions in phosphate buffer were made for each culture(three 1:10 serial dilutions for the control culture). […] of each dilution was spread on a nutrient agar plate, in duplicate and incubated overnight at 37° C. The following day, the number of colonies on the control plates was counted to determine the starting number of cells in the assay tubes. The number of cells surviving the assay in the presence of peptide was also counted.

Staphylococcus aureus = test: In vitro lysis of pathogenic bacteria (lytic peptide bioassay, colony count of survivors); format: cell-based; details: clinical isolate, 37° C. for one hour; for # of Survivors: minus peptide control 50,000; for % of Control: survivors
Description: as §1, §2, §3, §4

In the case of “Ala Val Lys Arg Val Gly Arg Arg Leu Lys Lys Leu Ala Arg Lys Iso Ala Arg Leu Gly Val Ala Phe [SEQ ID NO. 14]”, the “# of Survivors” value (Pseudomonas aeruginosa; peptide 1 μM) is reported as 100,000, the “# of Survivors” value (Pseudomonas aeruginosa; peptide 10 μM) is reported as 2 and the “% of Control” value (Pseudomonas aeruginosa; peptide 1 μM) is reported as 100%. For the same substance, the “% of Control” value (Pseudomonas aeruginosa; peptide 10 μM) was 0.002%, the “# of Survivors” value (Staphylococcus aureus; peptide 1 μM) was 50,000 and the “# of Survivors” value (Staphylococcus aureus; peptide 10 μM) was 2,299. For the same substance, the “% of Control” value (Staphylococcus aureus; peptide 1 μM) was 100% and the “% of Control” value (Staphylococcus aureus; peptide 10 μM) was 4.6%.
